Here are results for 1 compound from US5348970A, “Antifungal compound and compositions containing the compound” (Merck & Co., Inc., priority 1993, dated 1994).

Type in all cases: cell-based
Experiment [1] has as its system bacterial strains. The experiment can be described thus: Antibacterial activity in vitro (general statement). Particulars: qualitative statement. As for the experimental part: (§1) The antibacterial activity of the compound was determined using broth dilution assays. The compound was dissolved in DMSO at 10 mg/mL and serially diluted in Luria Broth (LB), composed of […]. The Enterococcal strains were grown in Brain Heart Infusion broth; Staphylococcus aureus (MB2865) was grown in LB; S. aureus (MB108) and (MB2949) and Proteus vulgaris were grown in Nutrient Broth with 2% yeast extract. All bacterial strains were incubated overnight at 37° C. The bacterial cells were diluted 10^-4 in LB to give approximately 5×10^4 to 1×10^5 colony forming units per milliliter. 180 μL of inoculated LB was added to the wells of a 96 well microtiter dish containing 20 μL of diluted inhibitor samples. The final concentration of the compound in the wells ranged from 500-0.00025 μg/ml. The microtiter dishes were incubated for 24 hours at 28° C. and visually inspected for growth. The minimum inhibitory concentration (MIC) was recorded as the lowest concentration of compound to prevent visible growth.

The subject of experiment [2] is Aspergillus fumigatus. Kind of experiment: Broth dilution MIC, antifungal activity (spore inoculum). Particulars: 18 h, strain MF 5668. As for the experimental part: (§2) Minimum Inhibitory Concentrations The antifungal activity of the compound of formula 1 was determined using broth dilution assays. The compound was dissolved in DMSO at 3.7 mg/mL and serially diluted in 1% aqueous DMSO. The yeast strains including Candida species and Cryptococcal species were grown to exponential phase in a complex medium composed of 1% peptone, 0.5% yeast extract and 0.05% dextrose (CM) at 29° C. The yeast cells were diluted in CM to A600 =0.004 U/mL which was previously determined to be equal to 3000 colony forming units per milliliter. 180 uL of inoculated CM was added to the wells of a 96 well microtiter dish containing 20 μL of diluted inhibitor samples. The final concentration of the compound in the wells ranged from 37-0.01 μg/ml. The microtiter dishes were incubated for 18 hours at 29° C. and visually inspected for growth. The minimum inhibitory concentration (MIC) was recorded as the lowest concentration of compound to prevent visible growth.
(§3) The same procedure was used to determine the MIC of the compound against the filamentous fungi, Aspergillus fumigatus MF 5668, except a spore inoculum was prepared. Spores of A. fumigatus were obtained by washing a well sporulated slant of the organism growing on potato dextrose agar with 0.05% tween 80 solution. […]

The subject of experiment [3] is Proteus vulgaris. The experiment can be described thus: Broth dilution MIC, antibacterial activity. Particulars: strain MB 838, 24 hours, 28° C. As for the experimental part: as §1
Experiment [4] relates to Staphylococcus aureus. The experiment can be described thus: Broth dilution MIC, antibacterial activity. The settings on record: 24 h. As for the experimental part:
as §1

Experiment [5] has as its system Entercoccus faecium. Kind of experiment: Broth dilution MIC, antibacterial activity. Particulars: 24 h. As for the experimental part:
as §1

The subject of experiment [6] is fungi. Kind of experiment: Antifungal activity in vitro (general statement). The settings on record: qualitative statement. As for the experimental part: as §2, §3
Experiment [7] concerns Candida krusei. The experiment can be described thus: Broth dilution MIC, antifungal activity. Particulars: Pichia kudriavzevii; strain MY 2168; 18 hours, 29° C. As to the method:
as §2

Experiment [8] relates to Candida tropicalis. The experiment can be described thus: Broth dilution MIC, antifungal activity. The settings on record: strain MY 2167, 18 hours, 29° C. As for the experimental part: as §2
Experiment [9] has as its system Candida parapsilosis. The experiment can be described thus: Broth dilution MIC, antifungal activity. Particulars: Lodderomyces parapsilosis; strain MY 1010; 18 hours, 29° C. As for the experimental part:
as §2

Experiment [10] relates to Cryptococcus neoformans. The experiment can be described thus: Broth dilution MIC, antifungal activity. The settings on record: 18 h. As to the method: as §2
In experiment [11] the test system is Candida albicans. The experiment can be described thus: Broth dilution MIC, antifungal activity. Particulars: strain MY 1055, 18 hours, 29° C. As for the experimental part: as §2

Values after ≈ are worked out from the molar mass of the structure shown. Where only a bound is given, the exact number is not on record here.

`CCCCCCCCCC1OC1/C=C/C(=O)C1(O)C(=O)NC(CO)C1O` (stereo not drawn) [Compound 1]: the antibacterial activity result in [1] was “antifungal and antibacterial activity”. Further, the MIC in experiment [2] is 37 µg/mL (≈ 100 µM); in experiment [3], over 500 µg/mL; in [4] (strain MB 108, 28° C.), 0.5 µg/mL (≈ 1.35 µM); in experiment [4] (strain MB 2865, 28° C.), 0.5 µg/mL (≈ 1.35 µM); in experiment [4] (strain MB 2949, 28° C.) it was 125 to 250 µg/mL (≈ 338 to 677 µM); in [5] (strain MB 5571, 28° C.), 2 µg/mL (≈ 5.41 µM). Also, the MIC in experiment [5] (strain MB 5572, 28° C.) is 1 µg/mL (≈ 2.71 µM); in experiment [7] it was over 37 µg/mL; in experiment [8], 7.4 µg/mL (≈ 20 µM); in [9] it was 1.5 µg/mL (≈ 4.06 µM); in experiment [10] (strain MY 2061, 29° C.), 7.4 µg/mL (≈ 20 µM); in [10] (strain MY 2062, 29° C.), 0.02 µg/mL (≈ 0.0541 µM). The compound also gave an MIC in [11] of 7.4 µg/mL (≈ 20 µM). Also, the antifungal activity entry in experiment [6] is “antifungal and antibacterial activity”.
